Test results as given in patent US20250268799A1, “MEDIUM FOR WATER-FREE ROOT CANAL DISINFECTANT WITH HIGH FLUIDITY, DISINFECTANT USING SAME, AND USE THEREOF” (WENZHOU QINGCHENG HEALTHCARE TECH LTD., priority 2022, published 2025).

Key:
Water dispersion test = type: physicochemical; conditions: 0.5% surfactant added to Paste A
Protocol: Add appropriate food-grade carmine dye to the above pastes, homogenize thoroughly with a homogenizer so that each paste can be squeezed out from a 25 G root canal irrigation needle, and divide into syringes for use.
S1: Prepare 23 150 mL beakers with similar diameters, fill them with water, and inject one drop (approximately 0.01 g) of each of the 23 pastes (A, B, C, D, E, F, G, H, A1-A15) into each beaker through a 25 G root canal irrigation needle (except G and H).
S2: Observe the color change immediately after preparation.

Enterococcus faecalis = conditions: in vitro direct contact; cited from earlier work
bacteria = conditions: intracanal medicament for one week; cited from earlier work

| Compound | effect of surfactant on the dispersion of the paste in water (Water dispersion test) | contact time for complete eradication of Enterococcus faecalis (Enterococcus faecalis) [h] | reduction of bacteria (bacteria) [%] |
| --- | --- | --- | --- |
| CC(=O)O.CC(=O)O.NC(=N\CCCCCC/N=C(N)/N=C(\N)Nc1ccc(Cl)cc1)/N=C(\N)Nc1ccc(Cl)cc1 [CHX, Chlorhexidine Acetate] | best performance | – | – |
| [Ca+2].[OH-].[OH-] [calcium hydroxide] | – | 24 | 92.5 |
| Fatty Alcohol Polyoxyethylene Ether [AEO-9] | negative effects | – | – |
| Polyoxyethylene (60) Hydrogenated Castor Oil [RH60] | best performance | – | – |
